Values of other authors, collected in US20190224170A1, “THERAPIES AND METHODS TO TREAT INFLAMMATORY GASTROINTESTINAL DISEASES AND DISORDERS” (The Regents of the University of California, priority 2018, published 2019).

System: multiple sclerosis
Details: supplementation with high doses of biotin

Structure (SMILES): O=C(O)CCCC[C@@H]1SC[C@@H]2NC(=O)N[C@@H]21 [biotin]
- clinical response: distinctive positive clinical response
